# Key:
# mice = assay: Delivery of FFL mRNA by intranasal administration, IVIS luminescent imaging; type: in vivo, mouse; conditions: lipid nanoparticle with FFL mRNA, dose 10 μg/Animal, 24 hours post dose
# Protocol: Lipid nanoparticle formulation 3 listed in Table 1 comprising FFL mRNA, cationic lipid, DMG-PEG2000, cholesterol and DOPE was administered in mice via pipetting the formulations at 10 μg/Animal and 15 μl per nostril. On Day 2, 24 hours post dose (±5%), all animals undergo a luminescent imaging session using IVIS with separate ROIs on the nose and lungs. Whole body imaging are performed 10-15 minutes following D-Luciferin administration. All animals are dosed with 0.2 mL of 15 mg/mL D-luciferin solution via intraperitoneal (IP) injection. Anesthesia performed by isoflurane during the procedure and animals will be placed sternal recumbency (face-down). […]
# [1] = Lipid degradability by mouse lung S9 in vitro; type: in vitro ADME; conditions: 2 μM lipid, 2.4 mg/ml lung S9, pH 7.4, 37° C.
# Protocol: (§1) Lipid degradability by MOUSE/HUMAN lung S9 in vitro
# (§2) Assay format—4 or 5 time points in triplicate.
# (§3) • 1) Plan experiment, compounds, and reagents. • 2) Dissolve each lipid in DMSO or IPA to make 5 mM stock, then dilute by IPA to 200 μM work solution. • 3) Thaw mouse and human lung S9. • 4) Prepare pooled incubation mixture as in the reaction formulas below on ice. • 5) Aliquot 495 μL incubation mixture prepared in step #4 to each well of a 2 mL 96-well plate. • 6) Add 5 μL compound to each well to initiate the reaction. Take t0 samples (as in step #8). • 7) Cover the plate with 2 layers of breathable seals and incubate the plate on an orbital shaker at 150 rpm in a 37° C. CO2 incubator. • 8) At each time point, pipette to mix the incubation mixture 5 times, then take 70 μL of incubation mixture to a fresh plate. Store in −20° C. freezer immediately. • 9) Add 210 μL (3× volume) of the cold stop solution to each well of the sample plates collected. Mix at 600 rpm on an orbital shaker for 15 min. • 10) Centrifuge the quenched plates at 3800 rpm for 10 min at 4° C. and transfer supernatant to fresh plates. • 11) Load the supernatant on filter plates and centrifuge again at 3800 rpm for 5 min at 4° C. Collect final samples in fresh plates for LC/MS.
# (§4) • 4-5 Time points (hour): e.g. 0, 4, 8, 24, 48 hr • stop solution: 1:1:1 ACN/MeOH/IPA (v/v/v) with propranolol & MC3 as internal standard. Store at 4° C.
# male CD1 mice = assay: Delivery of FFL mRNA by intratracheal administration, IVIS luciferase imaging of the lung; type: in vivo, mouse; conditions: lipid nanoparticles with FFL mRNA, single intratracheal administration via catheter, about 24 hours post-dose
# Protocol: Lipid nanoparticle formulations listed in Table 1 comprising FFL mRNA, cationic lipid, DMG-PEG2000, cholesterol and DOPE were administered to male CD1 mice (6-8 weeks old) by a single intratracheal administration via Catheter® ([…]) while under anesthesia. At approximately 24 hours post-dose, the animals were dosed with luciferin at 150 mg/kg (60 mg/ml) by intraperitoneal injection at 2.5 ml/kg. After 5-15 minutes, all animals were imaged using an IVIS imaging system to measure luciferase production in the lung.
# [2] = Lipid degradability by human lung S9 in vitro; type: in vitro ADME; conditions: 2 μM lipid, 2.4 mg/ml lung S9, pH 7.4, 37° C.
# Protocol: as §1, §2, §3, §4
smiles,measurement,setting,value
COc1cc(C(=O)OCCNC(=N)N)cc(OC)c1OC(=O)CCO[C@H]1CC[C@@]2(C)C(=CC[C@H]3[C@@H]4CC[C@H]([C@H](C)CCCC(C)C)[C@@]4(C)CC[C@@H]32)C1 [Compound III],FFLuc (Avr. Rad.),mice,"890,880 p/s/cm^2/sr"
same,In vitro degradation Mouse lung S9,[1],50.1 h
same,"in vivo FFL protein production (luciferase activity in the lung, FIG. 5)",male CD1 mice,high levels of in vivo FFL protein production
same,In vitro degradation Human lung S9,[2],39.2 h
COc1cc(C(=O)OCCCN(C)C)cc(OC)c1OC(=O)CCO[C@H]1CC[C@@]2(C)C(=CC[C@H]3[C@@H]4CC[C@H]([C@H](C)CCCC(C)C)[C@@]4(C)CC[C@@H]32)C1 [Compound II],FFLuc (Avr. Rad.),mice,"592,290 p/s/cm^2/sr"
same,In vitro degradation Mouse lung S9,[1],39.3 h
same,In vitro degradation Human lung S9,[2],38.2 h
COc1cc(C(=O)OCCCNC(=N)N)cc(OC)c1OC(=O)CCO[C@H]1CC[C@@]2(C)C(=CC[C@@H]3C2CC[C@]2(C)[C@@H]([C@H](C)CCCC(C)C)CC[C@@H]32)C1 (some centres unmarked) [Compound IV],FFLuc (Avr. Rad.),mice,"833,279 p/s/cm^2/sr"
same,In vitro degradation Mouse lung S9,[1],69.6 h
same,"in vivo FFL protein production (luciferase activity in the lung, FIG. 5)",male CD1 mice,high levels of in vivo FFL protein production
same,In vitro degradation Human lung S9,[2],62.9 h
COc1cc(C(=O)OCCN(C)C)cc(OC)c1OC(=O)CCC(=O)O[C@H]1CC[C@@]2(C)C(=CC[C@H]3[C@@H]4CC[C@H]([C@H](C)CCCC(C)C)[C@@]4(C)CC[C@@H]32)C1 [Compound I],FFLuc (Avr. Rad.),mice,"421,679 p/s/cm^2/sr"
same,In vitro degradation Mouse lung S9,[1],23.6 h
same,In vitro degradation Human lung S9,[2],22.2 h

# From patent US20260226094A1, “STEROL-BASED CATIONIC LIPIDS WITH AROMATIC HEAD GROUPS” (SANOFI, priority 2023, published 2026)
